Data published in patent US4442093A, “Method for administering 24,25-dihydroxycholecalciferol to persons suffering from hypercalcemia” (Kureha Kagaku Kogyo Kabushiki Kaisha, priority 1981, dated 1984).
No end group written: not given here.

Columns and labels:
[1] = tested on: ulcer found on the duodenum; test: Healing of acetic acid induced duodenal ulcer (Example 10); type: in vivo, male rats; conditions: 20 µg/kg/day oral, 10 days
Method: Fourty five male rats of body weight of 240 to 260 g were equally divided into three groups, each consisting of 15 animals, and they were subjected to an operation following the method of Okabe et al. (refer to Amer. J. Dig. Dia., 16, 277, 1971), in which under anesthesia by ether, a circular frame made of a metal was placed on the serosa 5 to 7 mm from the pylorus and 0.06 ml of gracial acetic acid was poured onto the round part within the frame and after 30 sec, the acetic liquid was removed with the frame.
The thus operated rats of the first group were administered orally with a suspension of […] of 24R,25-(OH)2 -D3 in Panacete®810 containing 0.2% by weight of ethanol once a day for continuous 10 days from the third day of the operation at a daily dose rate of 20 micrograms of 24R,25-(OH)2 -D3 /kg. To the thus operated rats of the second group (control), only Panacete®810 was orally administered at a daily dose rate of 2 ml/kg for continuous 10 days.
The thus operated rats of the third group were used in the comparative test. Namely, they were treated in the same manner as those of the first group except for administration of gefarnate (3,7-dimethyl-2,6-octadienyl-5,9,13-trimethyl-4,8,12-tetradecatrienoate) at a daily dose rate of 20 microgram/kg body weight in stead of 24R,25-(OH)2 -D3 in the first group.
After finishing the final administration, all the rats were sacrificed by ether and their duodenum was taken out for autopsy. The length and the width of the ulcer found on the duodenum were measured, and their product with a unit of mm^2 was taken and named as the ulcer coefficient. The rate of healing of the ulcer was calculated by the following formula: [formula] wherein C is the ulcer coefficient of control and U is the ulcer coefficient of the group to which the present compound was administered.

calcium level in serum [2] = test: Prevention of hypercalcemia in rats administered with 1-α-(OH)-D3 (Example 4); type: in vivo, male Wistar rats; conditions: 1-α-(OH)-D3 10 µg/kg i.p. alone
Text: In the present example, it is shown that 24R,25-(OH)2 -D3 has a function of preventing the occurrence of hypercalcemia on rats administered with 1-α-hydroxycholecalciferol (hereinafter referred to as 1-α-(OH)-D3).
Six subgroups of male Wistar rats of 130±30 g of body weight were subjected to the test while dividing the rats into 3 groups, each group consisting of 2 subgroups and each subgroup consisting of 5 animals. To the rats of the first group, after fasting for a night, an ethanolic solution of 1-α-(OH)-D3 was intraperitoneally administered at a dose rate of 10 micrograms of 1-α-(OH)-D3 /kg body weight. To the rats of the second group, a solution of 24R,25-(OH)2 -D3 in the triglyceride ester used in Example 1 was orally administered at a dose rate of 100 micrograms/kg body weight simultaneously with the same administration of 1-α-(OH)-D3 as in the rats of the first group.
The third group of the rats was used for control only with the oral administration of the triglyceride ester used in Example 1.

thymic cells = test: Pattern of the size of thymic cells by FACS (Example 12); type: in vivo, rats; conditions: 100 µg/kg/day oral 12 days with puromycin aminonucleoside
Method: After feeding the rats (the same number and the same grouping) of the same strain and treating them in the same manner as in Example 11, their thymus was resected, and an analysis of the pattern of the size of the thymic cells was carried out while using Fluorescence Activated Cell Sorter (FACS II, made by Becton-Dickinson Co.) as follows:
After loosing the resected thymus in phosphate buffer solution sufficiently with a pincette, pipetting well and passing the mixture through a standard #200 Tyler stainless steel mesh, the filtrate was treated with an aqueous 0.83% by weight ammonium chloride buffer solution containing tris-hydroxyaminomethane to carry out hemolysis of the erythrocytes intermingled therein followed by three times of washing with the phosphate buffer solution. After adjusting the concentration of the thus obtained thymic cell to 5×10^6 cells/ml with the addition of the phosphate buffer solution, the abovementioned analysis was carried out. The ratio of the number of living thymic cells to the total number of the thus obtained thymic cells was confirmed to be higher than 95% after staining with trypan blue and counting under microscope.

thymus = test: Weight ratio of thymus to body and number of thymocytes in rats given puromycin aminonucleoside (Example 11); type: in vivo, male JCL-Wistar rats; conditions: 100 µg/kg/day oral 12 days with puromycin aminonucleoside 15 mg/kg s.c.
Method: Thirty-two male JCL-Wistar rats in tenth week after birth were used in the present test while keeping them in a room at 21±1° C. and 60±5% RH with solid diet (CE 2) and water taken ad lib.
They were divided equally into 4 groups (one group consisting of 8 animals), their treatments in the test being as follows:
subcutaneous injection of puromycin aminonucleoside as in the second group and oral administration of 24R,25-(OH)2 -D3 dissolved in Panacete 810 once a day at a daily dose rate of 100 micrograms/kg for continuous 12 days.
subcutaneous injection of puromycin aminonucleoside as in the second group and oral administration of 24S,25-(OH)2 -D3 dissolved in Panacete 810 once a day at a daily dose rate of 100 micrograms/kg for continuous 12 days.
After uniformly loosing the thymus in phosphate buffer solution with a forcets and fully pipetting, the mixture was filtered through a stainless steel mesh (Tylar standard #200) and the filtrate containing the thymic cells was stained with Turk's solution. The thus stained specimen was subjected to counting under a microscope.

gastric ulcer = test: Prevention of gastric ulcer due to pyloric ligation (Example 9); type: in vivo, male Wistar rats; conditions: 200 µg/kg i.p. once after pyloric ligation, 15 h
Method: Twenty male Wistar rats of average body weight of 250 g were divided equally into two groups, and used in the following test:
After 36 hour fasting, all the rats were subjected to pyloric ligation, and the rats of the first group were administered with 2 ml/kg of Panacete®810 (triglyceride ester of C8 and C10 -fatty acid, made by Nippon Oil & Fats Co., Ltd.) containing 0.2% by weight of ethanol intraperitoneally once just after ligation. The rats of the second group were administered with 24R,25-(OH)2 -D3 dissolved in Panacete®810 containing 0.2% by weight of ethanol intraperitoneally at a dose rate of 200 micrograms/kg body weight once just after ligation. After 15 hours of administration, all the rats were subjected to gastrectomy, and the presence or absence of the gastroparietal ulcer was examined on all the resected stomach.
As a result, the occurrence of gastric ulcer was found on 9 rats of 10 rats of the first group, and on 2 rats of 10 rats of the second group.
In a similar test, 24S,25-(OH)2 -D3 was used instead of 24R,25-(OH)2 -D3 to examine its effect in preventing the occurrence of gastric ulcer due to pyloric ligation. As a result, the occurrence of gastric ulcer was recognized on 3 rats of 10 rats of the group similarly treated to those of the second group.

[3] = tested on: mononucleates (lymphocytes) of peripheral blood; test: Blastoid-transformation of rat lymphocytes in peripheral blood, 3H-TdR uptake (Example 13); type: in vivo
Method: The effect of the present compound on the blastoid-transformation of rat lymphocytes in the peripheral blood was examined as follows: After mixing each of the blood specimens taken from the respective rats of the four groups in Example 11 added with heparin and RPMI-1640 culture medium at a weight ratio of 1:1, the mixture was added to Ficoll-Paque solution, and the thus obtained mixture was subjected to centrifugal separation at 400 G for 20 min to collect the layer of mononucleates. After washing the thus collected mononucleates three times with PRMI-1640 culture medium (in a liquid state), the washed mononucleates were suspended into RPMI-1640 culture medium added with 10% by weight of calf serum to be in concentration of 1.5×10^6 cells/ml. Hundred microliters of the thus prepared suspension was placed in the pit of Pharcon microtest II plate, and after adding a substance promoting cell division (hereinafter referred to as mitogen) and RPMI-1640 culture medium added with 10% by weight of calf serum to the thus placed suspension to make the total volume 200 microliters, the thus prepared mixture was incubated for 72 hours under a gas (a 95:5 by volume mixture of air and carbon dioxide saturated with moisture) flow at 37° C. ^3 H-methylthymidine of specific activity of 5 Ci/mmol was added to the mixture during incubation at the time 24 hours before the incubation was over in an amount corresponding to 0.5 micro Ci. After the incubation was over, the cells in the culture were collected by filtering the cultured mixture, and the amount of radioactive isotope uptaken into the cells was determined by a liquid scintillation counter. For reference, the mitogen used in the present test is concanavalin A for T-cell or lipopolysaccharide for B-cell.

[4] = tested on: inorganic phosphate level in serum; conditions: after its administration; cited from earlier work
calcium level in serum [5] = test: Serum calcium in rats made hypercalcemic with Vitamin D3 (Example 1); type: in vivo, male Wistar rats; conditions: for Calcium level in serum: 24R 100 µg/kg oral, calcitonin 4 MRCU/kg s.c.
Method: To 16 subgroups of male Wistar rats of body weight of 150±40 g (one subgroup consisting of 5 rats), a solution of Vitamin D3 dissolved in corn oil at 600 micrograms/ml was orally administered once a day for continuous 4 days at a daily dose rate of 0.5 ml/100 g body weight to prepare the rats artifically suffering from hypercalcemia. After one day's fasting from the final administration of Vitamin D3, the calcium level in the serum of each rat of the first subgroup was on the average 13.5±0.4 mg/dl. The remaining 15 subgroups of the rats were divided into 3 groups each consisting of 5 subgroups and subjected to the following tests.
To the rats of the second group, a solution of porcine calcitonin in a physiological saline solution containing 4% by weight of gelatin was subcutaneously injected at a dose rate of 4 MRCU/kg body weight instead of the solution of 24R,25-(OH)2 -D3 and they were treated as those of the first group.
To the rats of the third group, only the same triglyceride ester as in the first group was orally administered, and they are treated in the same manner as in the first group.
The calcium level of the respective sera of the thus collected blood was determined by OCPC method (Orthocresol Phthalein Complexone method) and shown in Table 1.

[6] = 100 µg/kg/day oral 12 days with puromycin aminonucleoside

## CC(C)=CCCC(C)=CCCC(C)=CCCC(=O)OCC=C(C)CCC=C(C)C [gefarnate, 3,7-dimethyl-2,6-octadienyl-5,9,13-trimethyl-4,8,12-tetradecatrienoate, reference compound]
[1]
  ulcer coefficient: 7.5 mm^2
[1]; vs control
  rate of ulcer healing: 0%

## C=C1/C(=C\C=C2/CCC[C@]3(C)[C@@H]([C@H](C)CCCC(C)C)CC[C@@H]23)C[C@@H](O)C[C@@H]1O [1-α-(OH)--D3, 1-α-hydroxycholecalciferol, reference compound]
Calcium level in serum [2]; after 10 hours
  Calcium level in serum: 13.4 ± 0.6 mg/dL
Calcium level in serum [2]; after 18 hours
  Calcium level in serum: 14.5 ± 0.5 mg/dL

## C=C1CC[C@H](O)C/C1=C/C=C1\CCC[C@]2(C)[C@@H]([C@H](C)CC[C@H](O)C(C)(C)O)CC[C@@H]12 [24S,25-(OH)2 -D3]
Thymic cells
  number ratio of cells a little larger than normal cell to total thymic cells: the same as that of the control group
thymus
  Number of thymocytes: (30 ± 4.5) × 10^7
Gastric ulcer
  occurrence of gastric ulcer: 3 rats of 10 rats
[3]; [6]
  Uptake of 3H-TdR in presence of Concanavalin A: 3582 ± 362 cpm
  Uptake of 3H-TdR in presence of Lipopolysaccharide: 3126 ± 351 cpm
[3]; po, 0.1 mg/kg, 288 h
  Number of mononucleate (ratio, first group = 1.00): 0.58 ± 0.15

## calcitonin: porcine calcitonin in physiological saline solution containing 4% by weight of gelatin (CSNLSTCVLSAYWRNLNNFHRFSGMGFGPETP; ends and bridges not checked; cysteine pairing not given here; UniProt P01259 1-32, looked up)
[4]
  duration of strong reduction of serum inorganic phosphate level: 2 to 3 h
Calcium level in serum [5]; 4 MRCU/kg s.c.
  effect on raised serum calcium after 2 hours: its effect was not recognized after 2 hours of its administration
Calcium level in serum [5]; 2 h after administration
  Calcium level in serum: 10.8 ± 0.5 mg/dL
Calcium level in serum [5]; 5 h after administration
  Calcium level in serum: 13.0 ± 0.4 mg/dL
Calcium level in serum [5]; 8 h after administration
  Calcium level in serum: 13.4 ± 0.4 mg/dL
Calcium level in serum [5]; 12 h after administration
  Calcium level in serum: 13.9 ± 0.5 mg/dL
Calcium level in serum [5]; 24 h after administration
  Calcium level in serum: 13.4 ± 0.4 mg/dL
